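48-hour exposure; five concentrations; linearly interpolated endpoints. At the GI50, growth is halved.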 The source made the active and inactive calls. No stated cut-off is given here; in the data, active = GI50 up to about 1.1 µM and inactive = higher.
Key:
Assay in all cases: NCI tumour cell line growth inhibition, 48 h
DMS-114 = tested on: DMS-114
LXFL 529 = tested on: LXFL 529
KM-20L2 = tested on: KM-20L2
DLD-1 = tested on: DLD-1
M19-MEL = tested on: M19-MEL
DMS-273 = tested on: DMS-273
HOP-18 = tested on: HOP-18
RXF 631 = tested on: RXF 631
SNB-78 = tested on: SNB-78

| SMILES | GI50 (DMS-114) | GI50 (LXFL 529) | GI50 (KM-20L2) | GI50 (DLD-1) | GI50 (M19-MEL) | GI50 (DMS-273) | GI50 (HOP-18) | GI50 (RXF 631) | GI50 (SNB-78) |
| --- | --- | --- | --- | --- | --- | --- | --- | --- | --- |
| O=C1C=C[C@@]23CC1C(O)C[C@H]2C=Cc1ccccc13 (stereo partly specified) | > 100 µM (inactive) | > 100 µM (inactive) | > 100 µM (inactive) | 45.6 µM (inactive) | > 100 µM (inactive) | – | – | – | – |
| O=[N+]([O-])c1cccc(C2=NOC(C3CCCCC3)C2)c1 (stereo unspecified) | > 100 µM (inactive) | > 100 µM (inactive) | – | > 100 µM (inactive) | > 100 µM (inactive) | > 100 µM (inactive) | > 100 µM (inactive) | > 100 µM (inactive) | > 100 µM (inactive) |
| CC1=CCC(O)C=CC(C)C(O)C(C)C=C(C)C(=O)c2c(O)c(C)cc3c2C(=O)C(N)=C(NC(=O)/C=C\C=C/C=CC(C)C(O)CC1=O)C3=O (stereo unspecified) | > 100 µM (inactive) | 27.8 µM (inactive) | > 100 µM (inactive) | > 100 µM (inactive) | > 100 µM (inactive) | > 100 µM (inactive) | – | – | 17.3 µM (inactive) |
| COc1cc([C@H]2c3cc4c(cc3[C@H](NCc3ccc(F)cc3)C3COC(=O)[C@H]32)OCO4)cc(OC)c1O (stereo partly specified) | 3.37 µM (inactive) | 16.3 µM (inactive) | 3.56 µM (inactive) | 7.03 µM (inactive) | 7.59 µM (inactive) | 1.3 µM (inactive) | 26.3 µM (inactive) | 2.32 µM (inactive) | 24.7 µM (inactive) |
| CC(=O)c1ccc(NC(=O)C(=O)C(C(=O)c2ccc(Cl)c(Cl)c2)C2OC(=O)c3ccccc32)cc1 (stereo unspecified) | 13.4 µM (inactive) | 11 µM (inactive) | 34.4 µM (inactive) | 23.8 µM (inactive) | – | 22.1 µM (inactive) | 12.3 µM (inactive) | – | 12.9 µM (inactive) |
| COc1c(C)cc(O)cc1C=O | > 100 µM (inactive) | > 100 µM (inactive) | – | > 100 µM (inactive) | > 100 µM (inactive) | > 100 µM (inactive) | – | > 100 µM (inactive) | > 100 µM (inactive) |
| COc1ccc(-c2cnoc2-c2ccc(OC)c(OC)c2)cc1OC | 0.441 µM (active) | 1.83 µM (inactive) | 4.66 µM (inactive) | 2.12 µM (inactive) | 0.891 µM (active) | 0.314 µM (active) | 6.14 µM (inactive) | – | 7.62 µM (inactive) |
| O=C(/C=C(\O)C(=O)O)/C=C(\O)c1ccc(Cl)cc1 | > 100 µM (inactive) | > 100 µM (inactive) | > 100 µM (inactive) | > 100 µM (inactive) | > 100 µM (inactive) | > 100 µM (inactive) | > 100 µM (inactive) | – | > 100 µM (inactive) |
| CN(C)c1ccc(/C=C2\CCc3ccccc3C2=O)cc1Br | – | 48.3 µM (inactive) | 21.6 µM (inactive) | 55.5 µM (inactive) | 49.4 µM (inactive) | 34.7 µM (inactive) | > 100 µM (inactive) | – | 39.4 µM (inactive) |
| CCN(CC)C(=O)CNC(=O)OC(C)(C)C | > 100 µM (inactive) | – | > 100 µM (inactive) | > 100 µM (inactive) | > 100 µM (inactive) | > 100 µM (inactive) | – | – | > 100 µM (inactive) |
| Cc1c2n(c(=O)[nH]c1=O)C1OC(CO)C(O2)C1N=[N+]=[N-] (stereo unspecified) | > 100 µM (inactive) | > 100 µM (inactive) | > 100 µM (inactive) | > 100 µM (inactive) | > 100 µM (inactive) | > 100 µM (inactive) | – | – | > 100 µM (inactive) |
| COc1ccc(C(=O)O)c2c(=O)c3ccccc3[nH]c12 | – | > 100 µM (inactive) | > 100 µM (inactive) | – | > 100 µM (inactive) | > 100 µM (inactive) | – | – | > 100 µM (inactive) |
| COc1ccc(C2S/C(=C\c3cccc(OC)c3)C(=O)N2NC(=O)Cc2ccccc2)cc1 (stereo unspecified) | – | > 100 µM (inactive) | – | > 100 µM (inactive) | > 100 µM (inactive) | > 100 µM (inactive) | > 100 µM (inactive) | – | – |
| Cc1cnc2c(C)ccc([N+](=O)[O-])c2c1NCCCN(C)C | > 100 µM (inactive) | – | > 100 µM (inactive) | – | > 100 µM (inactive) | > 100 µM (inactive) | – | – | 43.7 µM (inactive) |
| CC(=O)NC1=C(NCCN(C)C)C(=O)c2ccccc2C1=O | – | 15 µM (inactive) | 16.4 µM (inactive) | 14.3 µM (inactive) | 7.6 µM (inactive) | 11.7 µM (inactive) | – | – | 18.9 µM (inactive) |
| CCc1cc(C(=O)OC)cn1C(=N)c1ccc(Cl)cc1 | > 100 µM (inactive) | > 100 µM (inactive) | > 100 µM (inactive) | > 100 µM (inactive) | > 100 µM (inactive) | > 100 µM (inactive) | > 100 µM (inactive) | – | > 100 µM (inactive) |
| O=C1c2c(O)cccc2C(C(=O)CCCCCC(=O)C2c3cccc(O)c3C(=O)c3c(O)cccc32)c2cccc(O)c21 | 0.512 µM (active) | 0.697 µM (active) | 5.51 µM (inactive) | 1.12 µM (inactive) | 0.857 µM (active) | 4.98 µM (inactive) | 1.16 µM (inactive) | 1.26 µM (inactive) | 0.681 µM (active) |
| COC(=O)C(=O)C(C(=O)C=C(C)C)C(=O)C(=O)Nc1cc(C(F)(F)F)ccc1Cl (stereo unspecified) | > 100 µM (inactive) | > 100 µM (inactive) | > 100 µM (inactive) | > 100 µM (inactive) | – | 28.7 µM (inactive) | > 100 µM (inactive) | > 100 µM (inactive) | > 100 µM (inactive) |
| CC1=Nc2ccccc2NC(c2ccoc2)C1 (stereo unspecified) | > 100 µM (inactive) | > 100 µM (inactive) | > 100 µM (inactive) | > 100 µM (inactive) | > 100 µM (inactive) | > 100 µM (inactive) | > 100 µM (inactive) | > 100 µM (inactive) | > 100 µM (inactive) |
| CCCCCCCCOCC(COC(=O)CCCCCCC)OC(=O)CCCCCCC (stereo unspecified) | > 100 µM (inactive) | > 100 µM (inactive) | > 100 µM (inactive) | > 100 µM (inactive) | > 100 µM (inactive) | > 100 µM (inactive) | > 100 µM (inactive) | > 100 µM (inactive) | – |
| O=[N+]([O-])c1ccc(Sc2c3ccccc3nc3ccccc23)cc1 | – | > 100 µM (inactive) | > 100 µM (inactive) | > 100 µM (inactive) | > 100 µM (inactive) | – | > 100 µM (inactive) | > 100 µM (inactive) | > 100 µM (inactive) |
| CC(=O)c1cccc(NC(=O)C(=O)Nn2c(N)nnc2N)c1 | > 100 µM (inactive) | > 100 µM (inactive) | > 100 µM (inactive) | > 100 µM (inactive) | > 100 µM (inactive) | > 100 µM (inactive) | > 100 µM (inactive) | – | > 100 µM (inactive) |
| Cc1cc(N(CCC#N)CCC#N)ccc1/N=N/c1ccc(Br)cc1 | 20.2 µM (inactive) | > 48.8 µM (inactive) | 3.61 µM (inactive) | > 42.7 µM (inactive) | > 53.3 µM (inactive) | 17.8 µM (inactive) | > 35 µM (inactive) | 11.1 µM (inactive) | 17.7 µM (inactive) |

— ChEMBL document CHEMBL1201862, “PubChem BioAssay data set” (2004)
